According to patent US7632830B2, “Lactam compounds and pharmaceutical use thereof” (Ajinomoto Co., Inc., priority 2000, dated 2009):

The molecules below were run on adipose cells of rats (assay: Evaluation of the sugar-transporting activity (2-[14C(U)]-deoxy-D-glucose incorporation)). Details: 100 μg/ml of each compound; evaluated on the basis of the reinforcing effect of insulin (100 nM); rat adipose cells.
Format: cell-based
Procedure: After the decapitation and venesection of 6 male Wistar rats (body weight: 150 to 200 g), an incision was made in the abdomen of each rat to extract 6 g in total of epididymal adipose tissues. The tissues were finely cut into 2 mm×2 mm pieces in 6 ml of KRH (Krebs-Ringer Hepes, composition: 130 mM of sodium chloride, 4.7 mM of potassium chloride, 1.2 mM of potassium dihydrogenphosphate, 1.2 mM of magnesium sulfate, 1 mM of calcium chloride and 25 mM of Hepes, pH=7.6) containing 5% of BSA (bovine serum albumin). 24 mg of collagenase (type I) was added thereto and the digestion treatment was conducted for about 40 minutes to obtain about 6 ml of isolated adipose cells. The collagenase was removed by the buffer exchange. 2% BSA/KRH solution was added to the residue for the re-suspension to obtain 45 ml of an adipose cell suspension.
The sugar-transporting activity of the compounds of the present invention was evaluated with reference to a method described in a literature [Annual Review of Biochemistry, Vol. 55, p. 1059 (1986)]. In the test, 200 μl of the adipose cell suspension was poured in each polystyrene test tube, 100 μl of the solution of the test substance (by dilution of 10 mg/ml substance dimethyl sulfoxide solution with KRH) was added thereto, and the obtained mixture was shaken and then cultured at 37° C. for 30 minutes.
The sugar-transporting activity was evaluated by measuring the quantity of 2-[^14C(U)]-deoxy-D-glucose incorporated per a unit time. Namely, 2-[^14C(U)]-deoxy-D-glucose was added to the adipose cell suspension after the pre-culture (the final concentration: 0.5 μCi/sample). 5 minutes after, cytochalasin B (final concentration: 10 μM) was added to the mixture to terminate the sugar transportation. After forming a dinonyl phthalate layer, the obtained mixture was centrifuged to separate the adipose cells from the buffer. The quantity of 2-[^14C(U)]-deoxy-D-glucose contained in the adipose cell layer was determined with a liquid scintillation counter to determine the quantity of the incorporated sugar. In this evaluation system, when insulin (100 nM) having the effect of increasing the sugar transportation was used, the effect was about 7 times as high as that obtained in the insulin-free control group.
The results of the evaluation of the sugar-transporting activity obtained by using 100 μg/ml of each compound of the present invention are shown in Table 6. The sugar transporting activity in Table 6 was evaluated on the basis of the reinforcing effect of insulin (100 nM). […] The symbols in Table 6 are as follows: • No: Example No., and • A: sugar transporting activity.
The results of the evaluation of the sugar-transporting activity obtained by using each compound of the present invention are shown in Table 7. The sugar transporting activity in Table 7 was determined in terms of the concentration (EC50: μg/ml) of a test compound, having a reinforcing effect corresponding to 50% on the basis of the reinforcing effect of insulin having a reinforcing effect of 100%.

Row | Molecule | activation at 100 µg/mL [%]
1 | CCCCCCOc1ccc(C2Nc3ccccc3NC3=C2C(=O)NC3)c(O)c1 (centres unmarked) [Example 29] | 20 to 40
2 | CC(=O)N1c2ccccc2NC2=C(C(=O)NC2)C1c1ccc(Br)cc1 (centres unmarked) [Example 43] | 40 to 70
3 | CCCCCCCCCCCCOc1ccc(C2Nc3ccccc3NC3=C2C(=O)NC3)cc1 (centres unmarked) [Example 11] | 40 to 70
4 | CCCOc1ccc(C2Nc3ccccc3NC3=C2C(=O)NC3)c(OCC)c1 (centres unmarked) [Example 26] | 40 to 70
5 | COc1ccccc1[C@H]1N[C@@H]2CCCC[C@H]2NC2=C1C(=O)NC2 [Example 39] | ≥ 70
6 | O=C1NCC2=C1[C@@H](c1ccc(Cl)cc1)N[C@@H]1CCCC[C@H]1N2 [Example 41] | ≥ 70
7 | CCCCOc1ccc(C2Nc3ccccc3NC3=C2C(=O)NC3)c(OCC)c1 (centres unmarked) [Example 23] | ≥ 70
8 | O=C1NCC2=C1C(c1ccc(OCc3ccccc3)cc1)Nc1ccccc1N2 (centres unmarked) [Example 1] | 40 to 70
9 | O=C1NCC2=C1[C@@H](c1ccc(Br)cc1)N[C@@H]1CCCC[C@H]1N2 [Example 37] | 40 to 70
10 | O=C1NCC2=C1C(c1ccc(OCC34CC5CC(CC(C5)C3)C4)cc1)Nc1ccccc1N2 (centres unmarked) [Example 14] | ≥ 70
11 | O=C1NCC2=C1C(c1ccc(OC3CCCCCC3)cc1)Nc1ccccc1N2 (centres unmarked) [Example 12] | 20 to 40

Same assay, conditions: concentration having a reinforcing effect corresponding to 50% of the reinforcing effect of insulin (100%); rat adipose cells

Row | Molecule | A: sugar transporting activity (EC50) [µg/mL]
12 | CCOCC(=O)N1[C@@H]2CCCC[C@H]2NC2=C(C(=O)NC2)[C@H]1c1ccccc1OC(C)C [Example 100] | 2
13 | CCOCC(=O)N1[C@@H]2CCCC[C@H]2NC2=C(C(=O)NC2)[C@H]1c1ccccc1Br [Example 137] | 8.6
14 | CCOc1ccccc1[C@@H]1C2=C(CNC2=O)N[C@@H]2CCCC[C@H]2N1C(=O)COC(C)=O [Example 91] | 13
15 | COc1ccccc1[C@@H]1C2=C(CNC2=O)N[C@@H]2CCCC[C@H]2N1C(=O)CCc1ccc(F)c(F)c1 [Example 70] | 4.2
16 | COc1ccccc1[C@@H]1C2=C(CNC2=O)N[C@@H]2CCCC[C@H]2N1C(=O)CC(F)(F)F [Example 49] | 0.47
17 | CCOCC(=O)N1[C@@H]2CCCC[C@H]2NC2=C(C(=O)NC2)[C@H]1c1ccc(Cl)cc1 [Example 163] | 6
18 | CCOc1ccccc1[C@@H]1C2=C(CNC2=O)N[C@@H]2CCCC[C@H]2N1C(=O)CO [Example 92] | 3.8
19 | COc1ccccc1[C@@H]1C2=C(CNC2=O)N[C@@H]2CCCC[C@H]2N1C(C)=O [Example 45] | 1.3
20 | CCOCC(=O)N1[C@@H]2CCCC[C@H]2NC2=C(C(=O)NC2)[C@H]1c1ccc(F)cc1OC [Example 108] | 7.8
21 | Cc1ccccc1[C@@H]1C2=C(CNC2=O)N[C@@H]2CCCC[C@H]2N1C(=O)C(F)(F)F [Example 117] | 6
22 | CC(=O)N1[C@@H]2CCCC[C@H]2NC2=C(C(=O)NC2)[C@H]1c1ccccc1Br [Example 139] | 6
23 | CCOCC(=O)N1[C@@H]2CCCC[C@H]2NC2=C(C(=O)NC2)[C@H]1c1ccccc1OCC [Example 94] | 4
24 | COC(=O)CC(=O)N1[C@@H]2CCCC[C@H]2NC2=C(C(=O)NC2)[C@H]1c1ccccc1Cl [Example 146] | 2
25 | CC(=O)OCC(=O)N1[C@@H]2CCCC[C@H]2NC2=C(C(=O)NC2)[C@H]1c1ccccc1C [Example 120] | 8
26 | COC(=O)N1[C@@H]2CCCC[C@H]2NC2=C(C(=O)NC2)[C@H]1c1ccccc1 [Example 156] | 2
27 | CSc1ccccc1[C@@H]1C2=C(CNC2=O)N[C@@H]2CCCC[C@H]2N1C(=O)CO [Example 164] | 2
28 | O=C1NCC2=C1[C@@H](c1ccccc1Br)N(C(=O)CC(F)(F)F)[C@@H]1CCCC[C@H]1N2 [Example 134] | 0.5
29 | COc1ccccc1[C@@H]1C2=C(CNC2=O)N[C@@H]2CCCC[C@H]2N1C(=O)CC(C)=O [Example 72] | 5.5

Row | Molecule | A: sugar transporting activity (EC50) [µg/mL]
30 | COc1ccccc1[C@@H]1C2=C(CNC2=O)N[C@@H]2CCCC[C@H]2N1C(=O)CCc1ccccn1 [Example 176] | 0.021
31 | COc1ccc([C@@H]2C3=C(CNC3=O)N[C@@H]3CCCC[C@H]3N2C(C)=O)c(OC)c1 [Example 115] | 10
32 | COC(=O)CC(=O)N1[C@@H]2CCCC[C@H]2NC2=C(C(=O)NC2)[C@H]1c1ccccc1Br [Example 136] | 1.5
33 | COc1ccccc1[C@@H]1C2=C(CNC2=O)N[C@@H]2CCCC[C@H]2N1C(=O)Oc1ccccc1 [Example 83] | 11
34 | Cc1ccccc1[C@@H]1C2=C(CNC2=O)N[C@@H]2CCCC[C@H]2N1C(=O)CCc1ccccn1 [Example 175] | 0.020
35 | COc1ccccc1[C@@H]1C2=C(CNC2=O)N[C@@H]2CCCC[C@H]2N1C(=O)c1ccncc1 [Example 78] | 18
36 | CCCC(=O)N1[C@@H]2CCCC[C@H]2NC2=C(C(=O)NC2)[C@H]1c1ccccc1OCC [Example 89] | 1.3
37 | COc1ccccc1[C@@H]1C2=C(CNC2=O)N[C@@H]2CCCC[C@H]2N1C(=O)CO [Example 51] | 2
38 | COc1cc(Cl)ccc1[C@@H]1C2=C(CNC2=O)N[C@@H]2CCCC[C@H]2N1C(C)=O [Example 110] | 6
39 | CCC(=O)N1[C@@H]2CCCC[C@H]2NC2=C(C(=O)NC2)[C@H]1c1ccccc1F [Example 149] | 2
40 | CCOc1ccccc1[C@@H]1C2=C(CNC2=O)N[C@@H]2CCCC[C@H]2N1C(=O)CCc1nccs1 [Example 172] | 0.060
41 | CCOC(=O)N1[C@@H]2CCCC[C@H]2NC2=C(C(=O)NC2)[C@H]1c1ccccc1OC [Example 81] | 4.2
42 | COc1ccccc1[C@@H]1C2=C(CNC2=O)N[C@@H]2CCCC[C@H]2N1C(=O)CCN [Example 66] | 8
43 | COC(=O)CCC(=O)N1[C@@H]2CCCC[C@H]2NC2=C(C(=O)NC2)[C@H]1c1ccccc1OC [Example 60] | 4.8
44 | CCCC(=O)N1[C@@H]2CCCC[C@H]2NC2=C(C(=O)NC2)[C@H]1c1ccccc1Cl [Example 142] | 4
45 | CCOCC(=O)N1[C@@H]2CCCC[C@H]2NC2=C(C(=O)NC2)[C@H]1c1ccccc1C [Example 119] | 4
46 | COCC(=O)N1[C@@H]2CCCC[C@H]2NC2=C(C(=O)NC2)[C@H]1c1ccccc1OC [Example 53] | 2

Same assay, conditions: insulin 100 nM; rat adipose cells

Row | Molecule | effect of increasing the sugar transportation relative to insulin-free control group
47 | insulin: insulin (100 nM) having the effect of increasing the sugar transportation; reference for the reinforcing effect [reference compound] | about 7 times
